Assay results published in PubChem BioAssay AID504726 (Broad Institute, 2011).
Calls of active or inactive are those of the source.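 Rule for the calls: active = fitted half-maximal concentration for a cytotoxic signal drop no higher than ten times the top valid dose tested; inconclusive = flat curve between -70 and -30 percent, or an unreliable fit; inactive = flat within 30 percent, signal rise, or potency beyond limit.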

Assay: viability loss in HeLa cells – cell-based, 24 h, cherry-picked samples, cytotoxicity control, dose response (AID 504726);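 note: 0% = DMSO neutral controls and -100% = mitoxantrone positive controls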
Details: HeLa viability, CellTiter-Glo ATP luminescence, 24 h; at 35 µM (top of the series)

Question: Which activity change, negative = cytotoxicity does the source give for O=C(Nc1ccccc1F)c1coc(=O)c(Br)c1 here?
Answer: Its activity change, negative = cytotoxicity is -20.2% (inactive).

Question: With Cc1cc(=O)c2c([nH]1)c(C)cc1[nH]c(C)c(C)c12 as the molecule, how does the activity change, negative = cytotoxicity read?
Answer: Its activity change, negative = cytotoxicity is -3.16% (inactive).

Question: For COc1ccc(N=C2SC(CC(=O)Nc3ccccc3)C(=O)N2Cc2ccco2)cc1 (stereo not given), which activity change, negative = cytotoxicity is on record?
Answer: Its activity change, negative = cytotoxicity is -17.3% (inactive).

Question: With Nc1ccccc1C(=O)N1O[C@@H]2C=C[C@H]1CC2 as the molecule, how does the activity change, negative = cytotoxicity read?
Answer: Its activity change, negative = cytotoxicity is -9.71% (inactive).

Question: With O=C(CCN1C(=O)/C(=C\c2ccco2)SC1=S)Nc1ccc(C(=O)O)c(O)c1 as the molecule, how does the activity change, negative = cytotoxicity read?
Answer: Its activity change, negative = cytotoxicity is 4.66% (inactive).

Question: For Cc1cc(Cl)ccc1N1C(=O)CC(NNC(=O)c2cccnc2)C1=O (stereo not given), which activity change, negative = cytotoxicity is on record?
Answer: Its activity change, negative = cytotoxicity is 5.15% (inactive).

Question: For Nc1ccc(-c2c3ccc(=O)cc-3oc3cc(O)ccc23)cc1C(=O)O, which activity change, negative = cytotoxicity is on record?
Answer: Its activity change, negative = cytotoxicity is -1.65% (inactive).

Question: For O=C(O)C(c1ccccc1)N1C(=O)/C(=C\c2ccc(-c3cccc(Cl)c3)o2)SC1=S (stereo not given), which activity change, negative = cytotoxicity is on record?
Answer: The activity change, negative = cytotoxicity was -2.5% (inactive).

Question: For Nc1cccc(N2C(=O)c3cccc4c(N)ccc(c34)C2=O)c1, which activity change, negative = cytotoxicity is on record?
Answer: The activity change, negative = cytotoxicity was 6.74% (inactive).

Question: With COc1c2c(nc3occc13)C(CCC(C)(C)O)(OC)C(O)CC2 (stereo not given) as the molecule, how does the activity change, negative = cytotoxicity read?
Answer: The activity change, negative = cytotoxicity was -4.6% (inactive).

Question: For CC(=O)Nc1ccc(S(=O)(=O)Nc2nc3ccccc3nc2Nc2ccc(C(=O)O)c(O)c2)cc1, which activity change, negative = cytotoxicity is on record?
Answer: Its activity change, negative = cytotoxicity is -13.1% (inactive).

Question: With O=C(COc1cccc(F)c1)Nc1nc(-c2cccnc2)cs1 as the molecule, how does the activity change, negative = cytotoxicity read?
Answer: The activity change, negative = cytotoxicity was -21.4% (inactive).

Question: Which activity change, negative = cytotoxicity does the source give for COC(=O)c1cccc(COC(=O)c2ccccc2NC(=O)c2ccco2)c1 here?
Answer: Its activity change, negative = cytotoxicity is -11.1% (inactive).

Question: Which activity change, negative = cytotoxicity does the source give for Cc1cc[n+](-c2[nH]c(=O)sc2/C=N/N=C(\[O-])c2ccccc2)cc1C here?
Answer: The activity change, negative = cytotoxicity was -3.68% (inactive).

Question: With CN(c1ccc(OCC(=O)OCC(=O)c2c(N)n(C)c(=O)n(C)c2=O)cc1)S(=O)(=O)c1ccc2ccccc2c1 as the molecule, how does the activity change, negative = cytotoxicity read?
Answer: Its activity change, negative = cytotoxicity is 3.95% (inactive).

Question: For COc1cc2c(cc1OC)CN(C(=O)c1ccc(S(=O)(=O)N3CCCC3)cc1)CC2, which activity change, negative = cytotoxicity is on record?
Answer: The activity change, negative = cytotoxicity was 1.87% (inactive).

Question: Which activity change, negative = cytotoxicity does the source give for O=C(NCC1CCCO1)c1cccc(S(=O)(=O)N(Cc2ccccc2)c2ccccc2)c1 (stereo not given) here?
Answer: The activity change, negative = cytotoxicity was -6.52% (inactive).

Question: With COc1ccc(NC(=O)CO/N=C2/CCCc3nonc32)c(OC)c1 as the molecule, how does the activity change, negative = cytotoxicity read?
Answer: Its activity change, negative = cytotoxicity is -3.9% (inactive).

Question: Which activity change, negative = cytotoxicity does the source give for O=S(=O)(O)c1cc(Cl)cc(N=Nc2ccc(O)cc2O)c1O here?
Answer: Its activity change, negative = cytotoxicity is -12.1% (inactive).

Question: With CCOC(=O)C1=C(O)/C(=C/c2cc(C)n(-c3ccccc3)c2C)N=C1C as the molecule, how does the activity change, negative = cytotoxicity read?
Answer: The activity change, negative = cytotoxicity was 3.92% (inactive).

Question: With CCNc1nc(NC(C)C)nc(NS(=O)(=O)c2ccc(N)cc2)n1 as the molecule, how does the activity change, negative = cytotoxicity read?
Answer: The activity change, negative = cytotoxicity was -6.72% (inactive).

Question: For COc1cc(C(=O)O)cc(NC(=O)c2ccco2)c1OC, which activity change, negative = cytotoxicity is on record?
Answer: The activity change, negative = cytotoxicity was -8.57% (inactive).

Question: With O=C(O)CCN1C(=O)/C(=C\c2ccc(-c3nc4ccccc4s3)o2)SC1=S as the molecule, how does the activity change, negative = cytotoxicity read?
Answer: Its activity change, negative = cytotoxicity is 1.33% (inactive).

Question: With Cc1cccnc1NC1(C(F)(F)F)N=C2SCCN2C1=O (stereo not given) as the molecule, how does the activity change, negative = cytotoxicity read?
Answer: The activity change, negative = cytotoxicity was -2.93% (inactive).

Question: With COCCN(CCOC)Cc1c(O)ccc2c1O/C(=C\c1ccco1)C2=O as the molecule, how does the activity change, negative = cytotoxicity read?
Answer: The activity change, negative = cytotoxicity was -13.7% (inactive).

Question: For Cc1cccc(C)c1NC(=O)CSc1nnc(-c2ccco2)c(-c2ccco2)n1, which activity change, negative = cytotoxicity is on record?
Answer: The activity change, negative = cytotoxicity was -6.45% (inactive).

Question: For O=C(CSc1cccc2cccnc12)N/N=C/c1ccc(O)cc1, which activity change, negative = cytotoxicity is on record?
Answer: The activity change, negative = cytotoxicity was 0.069% (inactive).

Question: Which activity change, negative = cytotoxicity does the source give for COc1cc(C(=S)N2CCN(c3cccc(Cl)c3)CC2)ccc1O here?
Answer: Its activity change, negative = cytotoxicity is 9.69% (inactive).

Question: Which activity change, negative = cytotoxicity does the source give for N#CCCN(CCC#N)C(=O)C1c2ccccc2Oc2ccccc21 here?
Answer: Its activity change, negative = cytotoxicity is -3.39% (inactive).

Question: With O=C1/C(=C/c2ccco2)SC(=S)N1c1cccnc1 as the molecule, how does the activity change, negative = cytotoxicity read?
Answer: Its activity change, negative = cytotoxicity is -6.8% (inactive).

Question: Which activity change, negative = cytotoxicity does the source give for CC1Cc2ccccc2N1C(=O)CCS(=O)(=O)c1cccs1 (stereo not given) here?
Answer: The activity change, negative = cytotoxicity was -6.91% (inactive).

Question: Which activity change, negative = cytotoxicity does the source give for NC(=S)NN=Cc1ccc(-c2ccc(S(=O)(=O)Nc3ncccn3)cc2)o1 here?
Answer: The activity change, negative = cytotoxicity was -14.8% (inactive).

Question: With CN(C)c1ccc(/C=N/N(CCO)C2=NS(=O)(=O)c3ccccc32)cc1 as the molecule, how does the activity change, negative = cytotoxicity read?
Answer: Its activity change, negative = cytotoxicity is -6.62% (inactive).

Question: With O=c1nc(N2CCOCC2)ccn1-c1nc(-c2ccccc2)sc1-c1ccccc1 as the molecule, how does the activity change, negative = cytotoxicity read?
Answer: The activity change, negative = cytotoxicity was -8.43% (inactive).

Question: With Cn1c(Cl)c(C(=O)Nc2ccc(Cl)cc2)c2ccccc21 as the molecule, how does the activity change, negative = cytotoxicity read?
Answer: Its activity change, negative = cytotoxicity is -6.51% (inactive).

Question: With O=C(CCCN1C(=O)/C(=C\c2ccco2)SC1=S)Nc1ccc(O)cc1C(=O)O as the molecule, how does the activity change, negative = cytotoxicity read?
Answer: The activity change, negative = cytotoxicity was 4.85% (inactive).

Question: For O=C(CN1CCN(C(=O)CNC(=O)c2ccc3c(c2)OCO3)CC1)Nc1ccc(F)cc1, which activity change, negative = cytotoxicity is on record?
Answer: The activity change, negative = cytotoxicity was -9.87% (inactive).

Question: Which activity change, negative = cytotoxicity does the source give for CCCCN(C(=O)CSc1nnc(-c2ccc(Cl)cc2)o1)c1c(N)n(CC(C)C)c(=O)[nH]c1=O here?
Answer: Its activity change, negative = cytotoxicity is 5.27% (inactive).

Question: For O=C(c1ccc2c(c1)CCN2S(=O)(=O)c1ccccc1)N1CCN(c2ccc(F)cc2)CC1, which activity change, negative = cytotoxicity is on record?
Answer: The activity change, negative = cytotoxicity was -13.2% (inactive).

Question: Which activity change, negative = cytotoxicity does the source give for O=C(CCN1C(=O)/C(=C/c2ccco2)SC1=S)Nc1ccc(C(=O)O)c(O)c1 here?
Answer: The activity change, negative = cytotoxicity was 2.73% (inactive).

Question: With COc1ccc(C2C(C(=O)c3cccs3)=C(O)C(=O)N2c2nncs2)cc1 (stereo not given) as the molecule, how does the activity change, negative = cytotoxicity read?
Answer: Its activity change, negative = cytotoxicity is -14.2% (inactive).

Question: With O=C(O)c1ccc(NS(=O)(=O)c2ccc3c(c2)C2C=CCC2C(c2ccccc2F)N3)cc1 (stereo not given) as the molecule, how does the activity change, negative = cytotoxicity read?
Answer: The activity change, negative = cytotoxicity was -8.24% (inactive).

Question: Which activity change, negative = cytotoxicity does the source give for CS(=O)(=O)Nc1nc2n(n1)C(c1ccccc1)C=C(c1ccc(Br)cc1)N2 (stereo not given) here?
Answer: Its activity change, negative = cytotoxicity is -2.61% (inactive).

Question: With c1ccc2[nH]c3cc4ncnc4cc3nc2c1 as the molecule, how does the activity change, negative = cytotoxicity read?
Answer: Its activity change, negative = cytotoxicity is 5.9% (inactive).

Question: For O=C(Nc1ccc(Br)cn1)c1cccc2ccccc12, which activity change, negative = cytotoxicity is on record?
Answer: Its activity change, negative = cytotoxicity is -12.4% (inactive).

Question: With O=[N+]([O-])c1cccc(CSc2nc3ccccc3[nH]2)c1 as the molecule, how does the activity change, negative = cytotoxicity read?
Answer: The activity change, negative = cytotoxicity was -8.29% (inactive).

Question: Which activity change, negative = cytotoxicity does the source give for CN(C)C(=O)c1ccc(NC(=O)COC(=O)C2(c3ccccc3)CCCC2)cc1 here?
Answer: The activity change, negative = cytotoxicity was -4.12% (inactive).

Question: For O=C(NC1(O)C(=O)c2ccccc2C1=O)c1c(Cl)cccc1Cl, which activity change, negative = cytotoxicity is on record?
Answer: Its activity change, negative = cytotoxicity is -4.52% (inactive).

Question: With Cc1cc2nc3c(=O)[nH]c(=S)[nH]c3nc2cc1NC(=O)C(F)(F)F as the molecule, how does the activity change, negative = cytotoxicity read?
Answer: Its activity change, negative = cytotoxicity is -3.95% (inactive).

Question: With Clc1ccc(C2=CC(c3ccco3)n3ncnc3N2)cc1 (stereo not given) as the molecule, how does the activity change, negative = cytotoxicity read?
Answer: Its activity change, negative = cytotoxicity is -16.1% (inactive).

Question: With COc1ccc(-c2n[nH]c(=S)n2-c2ccc(C)cc2)cc1 as the molecule, how does the activity change, negative = cytotoxicity read?
Answer: The activity change, negative = cytotoxicity was 4.29% (inactive).

Question: For O=C(OCC(=O)N1N=C(c2ccc(Cl)cc2)CC1c1ccco1)c1cccnc1 (stereo not given), which activity change, negative = cytotoxicity is on record?
Answer: The activity change, negative = cytotoxicity was -11.7% (inactive).

Question: For CCCc1nc(NCc2ccccn2)c2nnn(Cc3ccccc3F)c2n1, which activity change, negative = cytotoxicity is on record?
Answer: Its activity change, negative = cytotoxicity is -9.25% (inactive).

Question: For COc1ccc(/C=C/c2cc(C(F)(F)F)[nH]c(=O)n2)cc1OC, which activity change, negative = cytotoxicity is on record?
Answer: Its activity change, negative = cytotoxicity is -6.08% (inactive).

Question: Which activity change, negative = cytotoxicity does the source give for COc1ccc(-c2cc(C(F)(F)F)n3ncc(C(=O)N4CCCCC4c4cccnc4)c3n2)cc1 (stereo not given) here?
Answer: The activity change, negative = cytotoxicity was -6.34% (inactive).

Question: With CC1CC(C)(C)NC(=S)N1CC(=O)N(C)Cc1ccccc1 (stereo not given) as the molecule, how does the activity change, negative = cytotoxicity read?
Answer: The activity change, negative = cytotoxicity was -2.63% (inactive).

Question: For Nc1c(-c2ccccn2)cnn1-c1nc(-c2ccc(F)cc2)cs1, which activity change, negative = cytotoxicity is on record?
Answer: Its activity change, negative = cytotoxicity is -5.27% (inactive).

Question: With CCC(C)[C@H](NC(=O)[C@@H]1Cc2ccccc2CN1)C(=O)Nc1ccc2c(c1)OCO2 (stereo not given in full) as the molecule, how does the activity change, negative = cytotoxicity read?
Answer: The activity change, negative = cytotoxicity was -9.19% (inactive).

Question: With Cc1c(C#N)c(=O)c(-[n+]2ccccc2)c([S-])n1-c1ccc(Cl)cc1 as the molecule, how does the activity change, negative = cytotoxicity read?
Answer: The activity change, negative = cytotoxicity was -8.57% (inactive).

Question: With Cc1cc(/C=C2\C(=O)NC(=O)N(Cc3ccccc3)C2=O)c(C)n1-c1ccc(Cl)c(C(=O)O)c1 as the molecule, how does the activity change, negative = cytotoxicity read?
Answer: Its activity change, negative = cytotoxicity is 1.64% (inactive).
